Laboratory results from US5109111A, “CRF antagonists” (The Salk Institute for Biological Studies, priority 1990, dated 1992).

Assays:
[1] = test system: secretion of ACTH and β-endorphin-like (β-END-LI) immunoactivities; assay: hCRF stimulation of ACTH and β-END-LI secretion in vivo in rats
Experimental: Plasma levels of ACTH and β-END-LI are elevated for at least 5-20 minutes following the intraveneous administration of hCRF to nembutal-anesthesized male rats and to quiescent male or female rats with indwelling intravenous cannulae. […] These antagonists should counteract such effects.

[2] = test system: GRF-stimulated secretion of GH; assay: Specificity: GRF-stimulated secretion of GH; format: cell-based
Text: (§1) Compared to AHC(9-41), a potent CRF antagonist disclosed in U.S. Pat. No. 4,605,642, this peptide was more than 17 times as potent.

[3] = test system: GnRH-stimulated secretion of LH and FSH; assay: Specificity: GnRH-stimulated secretion of LH and FSH; format: cell-based
Text: as §1

[4] = test system: TRF-stimulated secretion of TSH and prolactin; assay: Specificity: TRF-stimulated secretion of TSH and prolactin; format: cell-based
Text: as §1

ACTH release = assay: In vivo duration of lowering ACTH release after iv injection, against the Standard; parameters: species or system rats

| Molecule | time plasma levels of ACTH and β-END-LI are elevated ([1]; intravenous hCRF, nembutal-anesthetized male rats and quiescent cannulated male or female rats) | stimulation of secretion of ACTH and β-END-LI in vivo ([1]; several rat preparations) | effect on GRF-stimulated secretion of GH [2] | effect on GnRH-stimulated secretion of LH and FSH [3] | effect on TRF-stimulated secretion of TSH and prolactin [4] | duration of bioactivity (lowering ACTH release) (ACTH release; dosages of 0.5 mg, two runs) | duration of effectiveness in lowering ACTH release (ACTH release; dose of 0.1 mg) |
| --- | --- | --- | --- | --- | --- | --- | --- |
| CC[C@H](C)[C@H](NC(=O)[C@@H](NC(=O)[C@H](CCC(=O)O)NC(=O)[C@H](CCSC)NC(=O)[C@H](CC(C)C)NC(=O)[C@H](CCCCN)NC(=O)[C@H](CCCNC(=N)N)NC(=O)[C@H](CC(N)=O)NC(=O)[C@H](CO)NC(=O)[C@H](Cc1c[nH]cn1)NC(=O)[C@H](C)NC(=O)[C@H](CCC(N)=O)NC(=O)[C@H](CCC(N)=O)NC(=O)[C@H](C)NC(=O)[C@H](CC(C)C)NC(=O)[C@H](CCC(N)=O)NC(=O)[C@H](CCC(=O)O)NC(=O)[C@H](C)NC(=O)[C@H](CCCNC(=N)N)NC(=O)[C@H](C)NC(=O)[C@H](CCSC)NC(=O)[C@H](CCC(=O)O)NC(=O)[C@H](CC(C)C)NC(=O)[C@@H](NC(=O)[C@H](CCC(=O)O)NC(=O)[C@H](CCCNC(=N)N)NC(=O)[C@H](CC(C)C)NC(=O)[C@H](CC(C)C)NC(=O)[C@H](Cc1c[nH]cn1)NC(=O)[C@H](Cc1ccccc1)NC(=O)[C@@H](NC(=O)[C@H](CC(C)C)NC(=O)[C@H](CC(=O)O)NC(=O)[C@H](CC(C)C)NC(=O)[C@H](CO)NC(=O)[C@@H](NC(=O)[C@@H]1CCCN1C(=O)[C@@H]1CCCN1C(=O)[C@H](CCC(=O)O)NC(=O)[C@H](CCC(=O)O)NC(=O)[C@@H](N)CO)[C@@H](C)CC)[C@@H](C)O)C(C)C)[C@@H](C)CC)C(N)=O [hCRF] | 5 to 20 min | powerful stimulator |  |  |  |  |  |
| AHC(9-41) |  |  | no effect | no effect | no effect | about 40 minutes | no measurable effect |
